These results are taken from US6071903A, “2,3,4,5-tetrahydro-1H-[1,4]-benzodiazepine-3-hydroxyamic acids” (American Cyanamid Company, priority 1999, dated 2000).

What all share (assay type): biochemical
The target of assay [1] is MMP-9 (Homo sapiens, UniProt P14780). The assay can be described thus: In Vitro Gelatinase Assay (MMP-9). The note with it: human neutrophil gelatinase B. As for the experimental part:
The enzyme activity is measured by the rate of the color increase. The thiopeptide substrate was made up fresh as a 20 mM stock in 100% DMSO and the DTNB was dissolved in 100% DMSO as a 100 mM stock and stored in the dark at room temperature. The substrate and the DTNB were diluted together to 1 mM with substrate buffer (50 mM HEPES, pH 7.5, 5 mM CaCl2) before use. […] The assay buffer, enzyme. […] The increase in OD405 was plotted and the slope of the line was calculated. The slope represents the reaction rate.

The target of assay [2] is T1, MMP-1 (Homo sapiens, UniProt P03956).
T1 construct: human recombinant fibroblast collagenase (truncated, mw=18,828)
T1 sequence (P03956 100-269 limits assumed): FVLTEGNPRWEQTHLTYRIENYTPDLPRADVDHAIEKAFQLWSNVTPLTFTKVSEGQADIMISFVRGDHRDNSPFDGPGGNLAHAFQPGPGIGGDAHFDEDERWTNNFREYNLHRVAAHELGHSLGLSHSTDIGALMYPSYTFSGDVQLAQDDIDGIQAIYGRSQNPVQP
The assay can be described thus: In Vitro Collagenase Assay (MMP-1). The note with it: human recombinant fibroblast collagenase. An excerpt:
In Vitro Collagenase Assay
This assay was based on the cleavage of a peptide substrate ((Dnp-Pro-Cha-Gly-Cys(Me)-His-Ala-Lys(NMa)-NH2), available from Peptide International, Inc.) by collagenase releasing the fluorescent NMa group which was quantitated on the fluorometer as disclosed in Bickett et al., "A High Throughput Fluorogenic Substrate for Interstitial Collagenase (MMP-1) and Gelatinase (MMP-9)", Anal. Biochem., 212:58-64, (1993). Dnp quenches the NMa fluorescence in the intact substrate.
The assay was run in HCBC assay buffer (50 mM HEPES, pH 7.0, 5 mM Ca^+2, 0.02% Brij, 0.5% Cysteine), with human recombinant fibroblast collagenase (truncated, mw=18,828. from Wyeth-Ayerst Research, Radnor, Pa.). The substrate was dissolved in methanol and stored frozen in 1 mM aliquots. Collagenase was stored frozen in buffer in 25 μM aliquots. In conducting the assay, the substrate was dissolved in HCBC buffer to a final concentration of 10 μM and collagenase to a final concentration of 5 nM. The compounds being examined were dissolved in methanol, DMSO, or HCBC. The methanol and DMSO were diluted in HCBC to <1.0%. The compounds were added to a 96 well plate containing enzyme and the reaction was started by the addition of substrate.
The reaction was read (excitation 340 nm, emission 444 nm) for 10 min. and the increase in fluorescence over time was plotted as a linear line. The slope of the line was calculated representing the reaction rate. The linearity of the reaction rate was confirmed (r^2 >0.85). The mean (x±sem) of the control rate was calculated and compared for statistical significance (p<0.05) with drug-treated rates using Dunnett's multiple comparison test.

Assay [3] concerns the target MMP-13 (Homo sapiens, UniProt P45452). In words: MMP-13 inhibition (Table 1). The note with it: read-out: IC50 (nM) MMP-13.
Assay [4] has as its target T2, TACE (Homo sapiens, UniProt P78536).
T2 construct: purchased Immunex
The assay can be described thus: Procedure for Measuring TACE Inhibition. As for the experimental part: Procedure for Measuring TACE Inhibition
The plates were incubated for 10 minutes at room temperature. The reaction was initiated by addition of a fluorescent peptidyl substrate (final concentration 100 μM) to each well with shaking on a shaker for 5 sec.
The reaction was read (excitation 340 nm, emission 420 nm) for 10 min. and the increase in fluorescence over time was plotted as a linear line. The slope of the line was calculated and this represents the reaction rate. […] The mean (x±sem) of the control rate was calculated and compared for statistical significance (p<0.05) with drug-treated rates using Dunnett's multiple comparison test.

T2 sequence (P78536 215-824): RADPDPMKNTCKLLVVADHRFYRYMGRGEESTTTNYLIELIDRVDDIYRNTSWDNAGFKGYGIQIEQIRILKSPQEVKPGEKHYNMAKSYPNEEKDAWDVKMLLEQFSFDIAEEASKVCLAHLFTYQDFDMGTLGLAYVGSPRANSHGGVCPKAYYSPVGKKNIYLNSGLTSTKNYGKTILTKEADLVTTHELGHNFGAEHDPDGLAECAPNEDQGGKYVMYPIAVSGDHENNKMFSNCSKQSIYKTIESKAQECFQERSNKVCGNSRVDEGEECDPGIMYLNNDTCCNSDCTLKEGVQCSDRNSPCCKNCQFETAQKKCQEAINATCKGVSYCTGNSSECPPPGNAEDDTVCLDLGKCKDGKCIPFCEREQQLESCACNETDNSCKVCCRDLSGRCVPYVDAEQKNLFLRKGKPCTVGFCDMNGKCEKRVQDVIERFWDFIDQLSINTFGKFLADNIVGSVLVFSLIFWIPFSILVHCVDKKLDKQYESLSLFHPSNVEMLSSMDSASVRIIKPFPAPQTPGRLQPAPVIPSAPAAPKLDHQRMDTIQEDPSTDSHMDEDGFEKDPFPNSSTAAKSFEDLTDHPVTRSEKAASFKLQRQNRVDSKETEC
MMP-9, sequence (P14780 94-707): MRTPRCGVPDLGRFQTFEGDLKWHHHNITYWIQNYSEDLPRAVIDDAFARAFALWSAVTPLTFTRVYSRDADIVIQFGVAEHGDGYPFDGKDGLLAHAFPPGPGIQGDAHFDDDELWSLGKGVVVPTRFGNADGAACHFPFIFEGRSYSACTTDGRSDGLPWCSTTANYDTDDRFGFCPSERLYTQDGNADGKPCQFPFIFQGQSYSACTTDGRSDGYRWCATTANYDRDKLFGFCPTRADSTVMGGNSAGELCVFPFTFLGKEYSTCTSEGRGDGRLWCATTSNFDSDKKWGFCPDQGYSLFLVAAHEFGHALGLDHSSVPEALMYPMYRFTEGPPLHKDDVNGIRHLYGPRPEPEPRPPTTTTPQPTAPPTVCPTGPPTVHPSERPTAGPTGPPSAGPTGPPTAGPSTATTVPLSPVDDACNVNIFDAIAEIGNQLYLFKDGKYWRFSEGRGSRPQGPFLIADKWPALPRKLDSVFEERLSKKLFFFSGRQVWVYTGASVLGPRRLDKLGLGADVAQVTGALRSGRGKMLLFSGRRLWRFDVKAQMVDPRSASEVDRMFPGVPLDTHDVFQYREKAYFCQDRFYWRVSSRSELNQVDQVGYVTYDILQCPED

For `COc1ccc(S(=O)(=O)N2Cc3ccccc3N(C(=O)c3ccc(-c4ccccc4)cc3)CC2C(=O)NO)cc1` (stereo not shown) [Example 15, 1-(4-Biphenylcarbonyl)-4-(4-methoxybenzenesulfonyl)-2,3,4,5-tetrahydro-1H-[1,4]benzodiazepine-3-carboxylic acid, Hydroxyamide], the IC50 was determined as 0.7 nM in assay [1], 52.7 nM in assay [2], 0.4 nM in assay [3] and 199 nM in assay [4].

Consider `COc1ccc(S(=O)(=O)N2Cc3ccccc3N(C(=O)c3ccco3)CC2C(=O)NO)cc1` (stereo not shown) [Example 40, 1-(2-Furanylcarbonyl)-4-(4-methoxybenzenesulfonyl)-2,3,4,5-tetrahydro-1H-[1,4]benzodiazepine-3-carboxylic acid, Hydroxyamide], for which the IC50 stood at 1.4 nM in assay [1], 16.6 nM in assay [2], 1.2 nM in assay [3] and 28.5 nM in assay [4].

With `COc1ccc(S(=O)(=O)N2Cc3ccccc3N(C(=O)COc3ccccc3)CC2C(=O)NO)cc1` (stereo not shown) [Example 58, 4-(4-Methoxybenzenesulfonyl)-1-(phenoxyacetyl)-2,3,4,5-tetrahydro-1H-[1,4]benzodiazepine-3-carboxylic acid, Hydroxamide], the IC50 worked out at 4.4 nM in assay [1], 65.5 nM in assay [2], 2.9 nM in assay [3] and 154 nM in assay [4].

As to `COCC(=O)N1CC(C(=O)NO)N(S(=O)(=O)c2ccc(OC)cc2)Cc2cc(C)ccc21` (stereo not shown) [Example 59, 1-Methoxyacetyl-4-(4-methoxybenzenesulfonyl)-7-methyl-2,3-4,5-tetrahydro-1H-[1,4]benzodiazepine-3-carboxylic acid, hydroxyamine], the IC50 in assay [1] was 2.6 nM; in assay [2], 105 nM; in assay [3], 1.8 nM; in assay [4], 125 ± 6 nM.

On to `COc1ccc(S(=O)(=O)N2Cc3cc(C)ccc3N(C(=O)c3ccccc3)CC2C(=O)NO)cc1` (stereo not shown) [Example 60, 1-Benzoyl-4-(4-methoxybenzenesulfonyl)-7-methyl-2,3,4,5-tetrahydro-1H[1,4]benzodianzepine-3-carboxylic acid, Hydroxyamide], for which the IC50 in assay [1] is 1.4 nM; in assay [2], 22.7 nM; in assay [3], 1.3 nM; in assay [4], 143 nM.

`COc1ccc(S(=O)(=O)N2Cc3ccc(Cl)cc3N(C(=O)c3ccc(OC(F)(F)F)cc3)CC2C(=O)NO)cc1` (stereo not shown) [Example 61, 4-(4-Methoxybenzenesulfonyl)-1-[4-(trifluoromethoxy)benzoyl]-8-chloro-2,3,4,5-tetrahydro-1H-[1,4]benzodiazepine-3-carboxylic acid, Hydroxyamide]: the IC50 in assay [1] is 1.3 nM; in assay [2], 239 nM; in assay [3], 0.4 nM; in assay [4] it was 1250 ± 69 nM.

Consider `COc1ccc(S(=O)(=O)N2Cc3cc(C)ccc3N(C(=O)c3ccccc3-n3cccn3)CC2C(=O)NO)cc1` (stereo not shown) [Example 63], for which the IC50 in assay [1] turned out to be 5.6 nM; in assay [2], 130 nM; in assay [3] it was 3.1 nM; in assay [4], 446 ± 48 nM.

With `COc1ccc(S(=O)(=O)N2Cc3ccc(Cl)cc3N(C(=O)c3ccccc3N3CCOCC3)CC2C(=O)NO)cc1` (stereo not shown) [Example 64, 4-(4-Methoxybenzenesulfonyl)-1-[2-(4-morpholino)phenylcarbonyl}-8-chloro-2,3,4,5-tetrahydro-1H-[1,4]benzodiazepine-3-carboxylic acid, Hydroxyamide], the IC50 in assay [1] stood at 6.1 nM; in assay [2], 157 nM; in assay [3], 3.4 nM; in assay [4], 384 nM.

In the case of `CCOc1ccc(C(=O)N2CC(C(=O)NO)N(S(=O)(=O)c3ccc(OC)cc3)Cc3ccccc32)cc1` (stereo not shown) [Example 65, 1-(4-Ethoxybenzoyl)-4-(4-methoxybenzenesulfonyl)-2,3,4,5-tetrahydro-1H-[1,4]benzodiazepine-3-carboxylic acid, Hydroxyamide], the IC50 in assay [1] was determined as 1.5 nM; in assay [2], 23.5 nM; in assay [3], 1.5 nM; in assay [4] it was 157 nM.

Take `COc1ccc(S(=O)(=O)N2Cc3ccccc3N(C(=O)c3ccc(-n4ccc(C)n4)cc3Cl)CC2C(=O)NO)cc1` (stereo not shown) [Example 66, 4-(4-Methoxybenzenesulfonyl)-1-[2-chloro-4-(3-methyl-1-pyrazolyl)phenylcarbonyl}-2,3,4,5-tetrahydro-1H-[1,4]benzodiazepine-3-carboxylic acid, Hydroxyamide]: the half-inhibitory concentration (IC50) in assay [1] amounted to 3.4 nM; in assay [2] it was 83.4 nM; in assay [3], 2.6 nM; in assay [4], 148 nM.

Turning to `COc1ccc(S(=O)(=O)N2Cc3ccccc3N(Cc3ccccc3)CC2C(=O)NO)cc1` (stereo not shown) [Example 67, 1-Benzyl-4-(4-methoxybenzenesulfonyl)-2,3,4,5-tetrahydro-1H-[1,4]benzodiazepine-3-carboxylic acid, Hydroxylamide], the IC50 in assay [1] was found to be 50.8 nM; in assay [2], 1320 nM; in assay [3] it was 73.9 nM; in assay [4], 551 ± 29 nM.

For `COc1ccc(S(=O)(=O)N2Cc3ccccc3N(C(=O)c3ccc(OC)cc3OC)CC2C(=O)NO)cc1` (stereo not shown) [Example 71, 1-(2,4-Dimethoxybenzoyl)-4-(4-methoxybenzenesulfonyl)-2,3,4,5-tetrahydro-1H-[1,4]benzodiazepine-3-carboxylic acid, Hydroxyamide], the IC50 was found to be 2.4 nM in assay [1], 41.3 nM in assay [2], 1.3 nM in assay [3] and 136 nM in assay [4].

For `COc1ccc(S(=O)(=O)N2Cc3ccccc3N(C(=O)CN3CCN(C)CC3)CC2C(=O)NO)cc1` (stereo not shown) [Example 72, 4-(4-Methoxybenzenesulfonyl)-1-[2-(4-methylpiperazin-1-yl)acetyl]-2,3,4,5-tetrahydro-1H-[1,4]benzodiazepine-3-carboxylic acid, Hydroxyamide], the half-inhibitory concentration (IC50) in assay [1] came out at 187 nM; in assay [2], 4980 nM; in assay [3] it was 317 nM; in assay [4] it was 808 nM.

In general, IC50 refers to the midpoint of a concentration-inhibition curve.
